Assay results as given in patent US20220064138A1, “MACROLIDE BREFELDIN A ESTER DERIVATIVES AND USE THEREOF” (OCEAN UNIVERSITY OF CHINA, priority 2019, published 2022).
pIC50: −log10 of the molar value.

Legend:
Assay in all cases: Cell proliferation assay (CCK-8)
Type in all cases: cell-based
[1] = tested on: Human cervical cancer Hela cells; conditions: 72 h
Description: (§1) CCK-8 method: The CCK-8 method is a highly sensitive, non-radioactive colorimetric assay for the determination of the number of viable cells in cell proliferation or cytotoxicity assays. The orange formazan dye produced by the bioreduction of CCK-8 by intracellular dehydrogenase is soluble in the cell culture medium, and the amount of formazan dye produced is proportional to the number of living cells. The kit used in this method is the tetrazolium salt-WST-8 (2-(2-methoxy-4-nitrophenyl)-3-(4-nitrophenyl)-5-(2,4-disulfophenyl)-2H-tetrazolium monosodium salt) developed by Dojindo Chemical Research Institute (Dojindo), which is capable of being reduced to a water-soluble formazan dye in the presence of the electronic carrier 1-Methoxy PMS.
(§2) Human cervical cancer Hela cells, pancreatic cancer PANC-1 cells, esophageal cancer Eca-109 cells, human leukemia K562 cells, human lung cancer A549 cells, human liver cancer HepG2 cells, human gastric cancer MKN-45 cells, human breast cancer MCF7 cells were cultured in DMEM medium containing 10% FBS (fetal bovine serum), 100 U/mL penicillin and 100 μg/ml streptomycin. Hepatocellular carcinoma cells Bel-7402 were cultured in RPMI-1640 medium containing 10% FBS (fetal bovine serum), 100 U/ml penicillin and 100 μg/ml streptomycin. All cells were placed in a cell culture incubator at 37° C. with 5% CO2. Cells fluid was changed every 3-5 days, and after 80% cell fusion, trypsin digestion and passaging were performed to keep the cells in good logarithmic growth phase.
(§3) All the samples to be tested were dissolved in DMSO.
(§4) Cells in logarithmic growth phase were inoculated in 96-well plates with 5000 cells/well respectively, and after 24 h of incubation, samples were added (final concentrations as shown in the table), and biplicate wells were set up for each sample. The amount of solvent of DMSO was not higher than 2‰. After 72 h, 10 μL of CCK-8 solution was added to each well and incubated for 1.5˜3 h at 37° C. The OD value at 450 nm was measured on an plate reader.
(§5) Inhibition rate (%)=(1−[(OD450 dosed well−OD450 blank well)/(OD450 control well−OD450 blank well)])×100%
(§6) The fitted IC50 values were calculated using the log (inhibitor) vs. response-Variable slop analysis method in GraphPad Prism software.

[2] = tested on: esophageal cancer Eca-109 cells; conditions: Homo sapiens, Eca-109, 72 h
Description: as §1, §2, §3, §4, §5, §6

[3] = tested on: human breast cancer MCF7 cells; conditions: MCF7, 72 h
Description: as §1, §2, §3, §4, §5, §6

[4] = tested on: human gastric cancer MKN-45 cells; conditions: MKN-45, 72 h
Description: as §1, §2, §3, §4, §5, §6

[5] = tested on: human leukemia K562 cells; conditions: K562, 72 h
Description: as §1, §2, §3, §4, §5, §6

[6] = tested on: human liver cancer HepG2 cells; conditions: HepG2, 72 h
Description: as §1, §2, §3, §4, §5, §6

[7] = tested on: human lung cancer A549 cells; conditions: A549, 72 h
Description: as §1, §2, §3, §4, §5, §6

[8] = tested on: pancreatic cancer PANC-1 cells; conditions: Homo sapiens, PANC-1, 72 h
Description: as §1, §2, §3, §4, §5, §6

Compound	pIC50 [1]	pIC50 [2]	pIC50 [3]	pIC50 [4]	pIC50 [5]	pIC50 [6]	pIC50 [7]	pIC50 [8]
C[C@H]1CCC/C=C/[C@@H]2C[C@H](OC(=O)/C=C/c3ccccc3F)C[C@H]2[C@H](O)/C=C/C(=O)O1 [Compound 2a, 7-O-(2-fluorocinnamic acid)acyl BFA]	5.00 to 6.00	5.00 to 6.00	6.00 to 7.00	6.00 to 7.00	6.00 to 7.00	6.00 to 7.00	6.00 to 7.00	6.00 to 7.00
C[C@H]1CCC/C=C/[C@@H]2C[C@H](O)C[C@H]2[C@H](OC(=O)/C=C/c2ccccc2F)/C=C/C(=O)O1 [Compound 2b, 4-O-(2-fluorocinnamic acid)acyl BFA]	5.00 to 6.00	5.00 to 6.00	6.00 to 7.00	6.00 to 7.00	6.00 to 7.00	6.00 to 7.00	6.00 to 7.00	6.00 to 7.00
C[C@H]1CCC/C=C/[C@@H]2C[C@H](OC(=O)/C=C/c3ccccc3F)C[C@H]2[C@H](OC(=O)/C=C/c2ccccc2F)/C=C/C(=O)O1 [Compound 2c, 4,7-O-bis(2-fluorocinnamic acid)acyl BFA]	5.00 to 6.00	5.00 to 6.00	5.00 to 6.00	6.00 to 7.00	6.00 to 7.00	5.00 to 6.00	5.00 to 6.00	5.00 to 6.00
C[C@H]1CCC/C=C/[C@@H]2C[C@H](OC(=O)/C=C/c3ccc(F)cc3)C[C@H]2[C@H](O)/C=C/C(=O)O1 [Compound 3a, 7-O-(4-fluorocinnamic acid)acyl BFA]	5.00 to 6.00	5.00 to 6.00	6.00 to 7.00	6.00 to 7.00	6.00 to 7.00	6.00 to 7.00	6.00 to 7.00	6.00 to 7.00
C[C@H]1CCC/C=C/[C@@H]2C[C@H](O)C[C@H]2[C@H](OC(=O)/C=C/c2ccc(F)cc2)/C=C/C(=O)O1 [Compound 3b, 4-O-(4-fluorocinnamic acid)acyl BFA]	6.00 to 7.00	5.00 to 6.00	6.00 to 7.00	6.00 to 7.00	6.00 to 7.00	6.00 to 7.00	6.00 to 7.00	6.00 to 7.00
C[C@H]1CCC/C=C/[C@@H]2C[C@H](OC(=O)/C=C/c3ccc(F)cc3)C[C@H]2[C@H](OC(=O)/C=C/c2ccc(F)cc2)/C=C/C(=O)O1 [Compound 3c, 4,7-O-bis(4-fluorocinnamic acid)acyl BFA]	5.00 to 6.00	5.00 to 6.00	5.00 to 6.00	5.00 to 6.00	5.00 to 6.00	5.00 to 6.00	6.00 to 7.00	6.00 to 7.00
C[C@H]1CCC/C=C/[C@@H]2C[C@H](OC(=O)/C=C/c3ccccc3Br)C[C@H]2[C@H](O)/C=C/C(=O)O1 [Compound 4a, 7-O-(2-bromocinnamic acid)acyl BFA]	6.00 to 7.00	6.00 to 7.00	6.00 to 7.00	6.00 to 7.00	6.00 to 7.00	6.00 to 7.00	6.00 to 7.00	6.00 to 7.00
C[C@H]1CCC/C=C/[C@@H]2C[C@H](O)C[C@H]2[C@H](OC(=O)/C=C/c2ccccc2Br)/C=C/C(=O)O1 [Compound 4b, 4-O-(2-bromocinnamic acid)acyl BFA]	6.00 to 7.00	6.00 to 7.00	6.00 to 7.00	6.00 to 7.00	6.00 to 7.00	6.00 to 7.00	6.00 to 7.00	6.00 to 7.00
C[C@H]1CCC/C=C/[C@@H]2C[C@H](OC(=O)/C=C/c3ccccc3Br)C[C@H]2[C@H](OC(=O)/C=C/c2ccccc2Br)/C=C/C(=O)O1 [Compound 4c, 4,7-O-bis(2-bromocinnamic acid)acyl BFA]	6.00 to 7.00	5.00 to 6.00	5.00 to 6.00	6.00 to 7.00	5.00 to 6.00	5.00 to 6.00	6.00 to 7.00	5.00 to 6.00
C[C@H]1CCC/C=C/[C@@H]2C[C@H](OC(=O)/C=C/c3cccc(Cl)c3)C[C@H]2[C@H](O)/C=C/C(=O)O1 [Compound 5a, 7-O-(3-chlorocinnamic acid)acyl BFA]	6.00 to 7.00	5.00 to 6.00	6.00 to 7.00	6.00 to 7.00	6.00 to 7.00	6.00 to 7.00	6.00 to 7.00	6.00 to 7.00
C[C@H]1CCC/C=C/[C@@H]2C[C@H](O)C[C@H]2[C@H](OC(=O)/C=C/c2cccc(Cl)c2)/C=C/C(=O)O1 [Compound 5b, 4-O-(3-chlorocinnamic acid)acyl BFA]	6.00 to 7.00	6.00 to 7.00	6.00 to 7.00	6.00 to 7.00	6.00 to 7.00	6.00 to 7.00	6.00 to 7.00	6.00 to 7.00
C[C@H]1CCC/C=C/[C@@H]2C[C@H](OC(=O)/C=C/c3cccc(Cl)c3)C[C@H]2[C@H](OC(=O)/C=C/c2cccc(Cl)c2)/C=C/C(=O)O1 [Compound 5c, 4,7-O-bis(3-chlorocinnamic acid)acyl BFA]	6.00 to 7.00	5.00 to 6.00	5.00 to 6.00	6.00 to 7.00	5.00 to 6.00	5.00 to 6.00	6.00 to 7.00	5.00 to 6.00
Cc1cccc(/C=C/C(=O)O[C@@H]2C[C@H]3[C@H](O)/C=C/C(=O)O[C@@H](C)CCC/C=C/[C@@H]3C2)c1 [Compound 6a, 7-O-(3-methylcinnamic acid)acyl BFA]	5.00 to 6.00	6.00 to 7.00	6.00 to 7.00	6.00 to 7.00	6.00 to 7.00	5.00 to 6.00	6.00 to 7.00	6.00 to 7.00
Cc1cccc(/C=C/C(=O)O[C@@H]2/C=C/C(=O)O[C@@H](C)CCC/C=C/[C@@H]3C[C@H](O)C[C@H]32)c1 [Compound 6b, 4-O-(3-methylcinnamic acid)acyl BFA]	6.00 to 7.00	6.00 to 7.00	6.00 to 7.00	6.00 to 7.00	6.00 to 7.00	6.00 to 7.00	6.00 to 7.00	6.00 to 7.00
Cc1cccc(/C=C/C(=O)O[C@@H]2C[C@@H]3[C@H](/C=C/CCC[C@H](C)OC(=O)/C=C/[C@H]3OC(=O)/C=C/c3cccc(C)c3)C2)c1 [Compound 6c, 4,7-O-bis(3-methylcinnamic acid)acyl BFA]	5.00 to 6.00	6.00 to 7.00	5.00 to 6.00	6.00 to 7.00	5.00 to 6.00	5.00 to 6.00	5.00 to 6.00	5.00 to 6.00
Cc1ccc(/C=C/C(=O)O[C@@H]2C[C@H]3[C@H](O)/C=C/C(=O)O[C@@H](C)CCC/C=C/[C@@H]3C2)cc1 [Compound 7a, 7-O-(4-methylcinnamic acid)acyl BFA]	5.00 to 6.00	5.00 to 6.00	5.00 to 6.00	6.00 to 7.00	5.00 to 6.00	5.00 to 6.00	6.00 to 7.00	6.00 to 7.00
Cc1ccc(/C=C/C(=O)O[C@@H]2/C=C/C(=O)O[C@@H](C)CCC/C=C/[C@@H]3C[C@H](O)C[C@H]32)cc1 [Compound 7b, 4-O-(4-methylcinnamic acid)acyl BFA]	5.00 to 6.00	6.00 to 7.00	6.00 to 7.00	6.00 to 7.00	5.00 to 6.00	6.00 to 7.00	6.00 to 7.00	6.00 to 7.00
Cc1ccc(/C=C/C(=O)O[C@@H]2C[C@@H]3[C@H](/C=C/CCC[C@H](C)OC(=O)/C=C/[C@H]3OC(=O)/C=C/c3ccc(C)cc3)C2)cc1 [Compound 7c, 4,7-O-bis(4-methylcinnamic acid)acyl BFA]	5.00 to 6.00	6.00 to 7.00	5.00 to 6.00	6.00 to 7.00	5.00 to 6.00	5.00 to 6.00	5.00 to 6.00	5.00 to 6.00
Cc1ccccc1/C=C/C(=O)O[C@@H]1C[C@H]2[C@H](O)/C=C/C(=O)O[C@@H](C)CCC/C=C/[C@@H]2C1 [Compound 8a, 7-O-(2-methylcinnamic acid)acyl BFA]	5.00 to 6.00	6.00 to 7.00	6.00 to 7.00	6.00 to 7.00	5.00 to 6.00	5.00 to 6.00	6.00 to 7.00	6.00 to 7.00
Cc1ccccc1/C=C/C(=O)O[C@@H]1/C=C/C(=O)O[C@@H](C)CCC/C=C/[C@@H]2C[C@H](O)C[C@H]21 [Compound 8b, 4-O-(2-methylcinnamic acid)acyl BFA]	5.00 to 6.00	6.00 to 7.00	6.00 to 7.00	6.00 to 7.00	5.00 to 6.00	6.00 to 7.00	6.00 to 7.00	6.00 to 7.00
